Series [1] deals with T1, Androgen receptor (Homo sapiens) (UniProt P10275).
T1 sequence (whole entry): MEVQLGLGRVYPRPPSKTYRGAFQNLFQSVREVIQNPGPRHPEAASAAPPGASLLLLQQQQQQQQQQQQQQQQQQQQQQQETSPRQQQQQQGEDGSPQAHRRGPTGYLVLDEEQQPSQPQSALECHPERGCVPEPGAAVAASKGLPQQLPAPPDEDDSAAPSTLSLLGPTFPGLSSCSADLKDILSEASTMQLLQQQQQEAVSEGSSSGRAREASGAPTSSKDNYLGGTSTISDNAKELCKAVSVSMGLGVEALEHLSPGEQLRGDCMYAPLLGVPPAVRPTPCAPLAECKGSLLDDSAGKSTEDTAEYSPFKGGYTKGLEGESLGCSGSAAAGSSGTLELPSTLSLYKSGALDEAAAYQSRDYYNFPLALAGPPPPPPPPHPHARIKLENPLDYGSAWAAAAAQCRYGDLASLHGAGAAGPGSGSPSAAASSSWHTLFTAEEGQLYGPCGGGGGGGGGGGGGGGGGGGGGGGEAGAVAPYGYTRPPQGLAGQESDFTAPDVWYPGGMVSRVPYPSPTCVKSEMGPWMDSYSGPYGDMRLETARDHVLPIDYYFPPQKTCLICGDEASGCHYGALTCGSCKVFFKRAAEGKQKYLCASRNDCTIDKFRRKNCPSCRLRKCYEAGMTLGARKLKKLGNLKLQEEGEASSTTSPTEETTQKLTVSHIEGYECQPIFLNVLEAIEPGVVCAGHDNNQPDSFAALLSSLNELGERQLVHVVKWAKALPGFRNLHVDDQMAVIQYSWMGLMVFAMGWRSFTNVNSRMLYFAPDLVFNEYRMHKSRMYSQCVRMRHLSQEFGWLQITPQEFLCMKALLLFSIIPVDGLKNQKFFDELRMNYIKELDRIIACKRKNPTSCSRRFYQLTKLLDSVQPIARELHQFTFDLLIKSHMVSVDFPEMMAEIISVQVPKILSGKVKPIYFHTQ
Nature of the series: Antagonist activity at human androgen receptor expressed in LNAR cells assessed as inhibition of […]-induced luciferase activity by reporter gene assay. In kind it is functional, cell-based. For orientation: In a reporter assay the amount or activity of a reporter protein is the signal.

Series [2] can be described thus: Half life in rat. In kind it is ADME, organism-based. To be noted: in vivo.
Series [3] can be described thus: Oral bioavailability in rat. To be noted: in vivo. Type of series: ADME, organism-based.
Series [4] in a line: Plasma clearance in rat. Type of series: ADME, organism-based.
Series [5] in a line: Kinetic solubility in water. In kind it is physicochemical. To be noted: read-out: Kinetic_solubility.
Series [6] is described as follows: Drug metabolism in human liver microsomes assessed as CYP450-mediated oxidation. Type of series: ADME, Microsome. A general note: Liver microsomes are a subcellular fraction often used to study metabolism.

Calls of active or inactive are those of the source. The rule behind the calls is not given here. Some results are limits rather than exact numbers.

With `CC1(C)[C@H](NC(=O)c2cnc3ncccn23)C(C)(C)[C@H]1Oc1ccc(C#N)c(C#N)c1`, the inhibition result in series [1] was “Active”.

What is called half-life is the time in which the quantity being followed falls by half. As a reminder, the bioavailability is the share of a dose that reaches the circulation, judged against a reference dose that is usually intravenous. In general, clearance refers to the rate of elimination divided by the concentration. In turn, `Cc1nc(O[C@H]2C(C)(C)[C@H](NC(=O)c3cnc4ncccn34)C2(C)C)ccc1C#N` showed a half-life in series [2] of 3.6 h. For the same molecule, the bioavailability in series [3] was determined as 31%. Also, the clearance in series [4] amounted to 11.6 mL/min/kg. Regarding `COc1nc(O[C@H]2C(C)(C)[C@H](NC(=O)c3cnc4ncccn34)C2(C)C)ccc1C#N`, the inhibition result in series [1] is “Active”.

Take `Cc1nc(O[C@H]2C(C)(C)[C@H](NC(=O)c3cnc4ccccn34)C2(C)C)ccc1C#N`: the solubility kinetic in series [5] was < 0.4 µM. In series [6], the Drug metabolism result is “Active”. Consider `CC1(C)[C@H](NC(=O)c2cnc3ncccn23)C(C)(C)[C@H]1Oc1ccc(C#N)c(Cl)c1`, for which the inhibition result in series [1] is “Active”.
